Results from patent US20240294551A1 (AMGEN INC., priority 2022, published 2024).
Where two headings read alike, the source gives them in different places.

Key:
[1] = molecular target: His-tagged KRAS G12D protein (Homo sapiens (Human), UniProt P01116, G12D); assay: KRAS G12D TR-FRET Assay; type: binding; conditions: read-out: KRAS G12D Binding IC50
Summary of the method: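 Each incubation ran at room temperature: enzyme with compound for 30 minutes, peptide for one hour, and detection reagents (0.4 nM europium anti-6×His, 5 nM streptavidin-d2) for one hour more. Protein and peptide stocks were each diluted to 20 nM before addition.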

[2] = molecular target: GDP-bound KRAS protein (aa 1-169), containing both G12D and C118A amino acid substitutions (Homo sapiens (Human), UniProt P01116, C118A/G12D); assay: KRAS G12D Coupled Nucleotide Exchange Assay; type: biochemical; conditions: read-out: KRAS G12D Coupled Exchange IC50
GDP-bound KRAS protein (aa 1-169), containing both G12D and C118A amino acid substitutions, sequence (P01116 other isoform, or with tags, fused parts or gaps G12D/C118A): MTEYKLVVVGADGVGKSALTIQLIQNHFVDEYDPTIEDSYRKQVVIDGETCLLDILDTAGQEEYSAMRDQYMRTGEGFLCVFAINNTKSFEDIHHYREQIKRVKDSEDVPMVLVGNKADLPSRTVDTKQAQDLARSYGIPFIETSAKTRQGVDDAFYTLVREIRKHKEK

[3] = system: Phosphorylation of ERK1/2 in AsPC-1 cells; assay: Phospho-ERK1/2 MSD Assay; type: cell-based, human; conditions: read-out: 2 h p-ERK (AsPC-1 cells), IC50
Method: AsPC-1 (ATCC® CRL-1682™) cells were cultured in RPMI 1640 Medium (ThermoFisher Scientific 11875093) containing 10% fetal bovine serum (ThermoFisher Scientific 16000044) and 1× penicillin-streptomycin-glutamine (ThermoFisher Scientific 10378016). Sixteen hours prior to compound treatment, AsPC-1 cells were seeded in 96-well cell culture plates at a density of 25,000 cells/well and incubated at 37° C., 5% CO2. A compound dose-response titration was diluted in growth media, added to appropriate wells of a cell culture plate, and then incubated at 37° C., 5% CO2 for 2 hours. Following compound treatment, cells were washed with ice-cold Dulbecco's phosphate-buffered saline, no Ca^2+ or Mg^2+ (ThermoFisher Scientific 14190144), and then lysed in RIPA buffer (50 mM Tris-HCl pH 7.5, 1% Igepal, 0.5% sodium deoxycholate, 150 mM NaCl, and 0.5% sodium dodecyl sulfate) containing protease inhibitors (Roche 4693132001) and phosphatase inhibitors (Roche 4906837001). Phosphorylation of ERK1/2 in compound-treated lysates was assayed using Phospho-ERK1/2 Whole Cell Lysate kits (Meso Scale Discovery K151DWD) according to the manufacturer's protocol. Assay plates were read on a Meso Scale Discovery Sector Imager 6000, and data were analyzed using a 4-parameter logistic model to calculate IC50 values.

His-tagged KRAS G12D protein, sequence (P01116 other isoform, or with tags, fused parts or gaps G12D): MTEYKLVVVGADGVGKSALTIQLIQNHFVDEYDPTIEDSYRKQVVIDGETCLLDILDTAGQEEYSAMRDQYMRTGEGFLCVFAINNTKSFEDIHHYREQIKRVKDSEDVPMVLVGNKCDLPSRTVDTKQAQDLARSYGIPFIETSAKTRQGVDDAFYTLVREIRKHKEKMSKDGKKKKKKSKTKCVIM

Compound | IC50 [1] [nM] | IC50 [2] [nM] | IC50 ([3]; Homo sapiens, ASPC1, 2 h) [nM] | IC50 ([3]; 2 h) [nM]
Cc1cc2[nH]ncc2c2c1CCCCC(=O)N[C@@H]1COCCN(C1)c1nc(OC[C@@]34CCCN3C[C@H](F)C4)nc3c(F)c-2ncc13 [Example 66, (26S)-32-fluoro-4-(((2R,7aS)-2-fluorotetrahydro-1H-pyrrolo[1,2-a]pyrrol-7a(5H)-yl)methoxy)-18-methyl-28-oxa-1,3,5,9,14,15,25-heptaazahexacyclo [24.4.1.1~6,10~.0~2,7~.0~11,19~.0~12,16~]dotriaconta-2,4,6,8,10(32),11,13,16,18-nonaen-24-one] | 34 | 26 | 4700 | –
O=C1CCCc2c(F)ccc3cccc(c23)-c2ncc3c(nc(OC[C@@]45CCCN4C[C@H](F)C5)nc3c2F)N2CCC[C@H](C2)N1 [Example 68, (15R)-22,31-Difluoro-8-(((2R,7aS)-2-fluorotetrahydro-1H-pyrrolo[1,2-a]pyrrol-7a(5H)-yl)methoxy)-3,7,9,11,16-pentaazahexacyclo[19.7.1.1˜2,6˜.1˜11,15˜.0˜5,10˜.0˜25,29˜]hentriaconta-1(28),2(31),3,5,7,9,21,23,25(29),26-decaen-17-one 2,2,2-trifluoroacetate] | 33 | 16 | 931 | –
O=C1CCCc2c(F)ccc3cccc(c23)-c2ncc3c(nc(OC[C@@]45CCCN4C[C@H](F)C5)nc3c2F)N2CCCC[C@H](C2)N1 [Example 69, (16R)-23,32-difluoro-8-(((2R,7aS)-2-fluorotetrahydro-1H-pyrrolo[1,2-a]pyrrol-7a(5H)-yl)methoxy)-3,7,9,11,17-pentaazahexacyclo[20.7.1.1~2,6~.1~11,16~.0~5,10~.0~26,30~]dotriaconta-1(29),2(32),3,5,7,9,22,24,26(30),27-decaen-18-one] | 30 | 20 | 1140 | –
CN1C(=O)CCCCc2c(Cl)cc3[nH]ncc3c2-c2cc3nc(OC[C@@]45CCCN4C[C@H](F)C5)nc(c3nn2)N2CCC[C@@H]1C2 [Example 73, (17R)-9-Chloro-24-(((2R,7aS)-2-fluorotetrahydro-1H-pyrrolo[1,2-a]pyrrol-7a(5H)-yl)methoxy)-16-methyl-5,6,16,21,23,25,28,29-octaazahexacyclo[24.3.1.1˜17,21˜.0˜2,10˜.0˜3,7˜.0˜22,27˜]hentriaconta-1(30),2,4,7,9,22,24,26,28-nonaen-15-one] | 29 | 20 | 2070 | –
CN1C(=O)OCCCc2c(Cl)cc3[nH]ncc3c2-c2ncc3c(nc(OC[C@@]45CCCN4C[C@H](F)C5)nc3c2F)N2CCC[C@@H]1C2 [Example 74, (17R)-9-Chloro-30-fluoro-24-(((2R,7aS)-2-fluorotetrahydro-1H-pyrrolo[1,2-a]pyrrol-7a(5H)-yl)methoxy)-16-methyl-14-oxa-5,6,16,21,23,25,29-heptaazahexacyclo[24.3.1.1˜17,21˜.0˜2,10˜.0˜3,7˜.0˜22,27˜]hentriaconta-1(30),2,4,7,9,22,24,26,28-nonaen-15-one] | 3 | 2 | 16 | –
O=C1CCCCc2c(C(F)(F)F)cc3[nH]ncc3c2-c2ncc3c(nc(OC[C@@]45CCCN4C[C@H](F)C5)nc3c2F)N2CCC[C@H](C2)O1 [Example 87, (17R)-30-fluoro-24-(((2R,7aS)-2-fluorotetrahydro-1H-pyrrolo[1,2-a]pyrrol-7a(5H)-yl)methoxy)-9-(trifluoromethyl)-16-oxa-5,6,21,23,25,29-hexaazahexacyclo[24.3.1.1~17,21~.0~2,10~.0~3,7~.0~22,27~]hentriaconta-1(30),2,4,7,9,22,24,26,28-nonaen-15-one] | 24 | 23 | 421 | –
O=C1CC2CCCN(C2)c2nc(OC[C@@]34CCCN3C[C@H](F)C4)nc3c(F)c(ncc23)-c2cccc3cccc(c23)CCO1 (stereo partly drawn) [Example 88] | 19 | 11 | 1580 | –
O=C1COCCc2c(Cl)cc3[nH]ncc3c2-c2ncc3c(nc(OC[C@@]45CCCN4C[C@H](F)C5)nc3c2F)N2CCC[C@H](C2)O1 [Example 90, (17R)-9-chloro-30-fluoro-24-(((2R,7aS)-2-fluorotetrahydro-1H-pyrrolo[1,2-a]pyrrol-7a(5H)-yl)methoxy)-13,16-dioxa-5,6,21,23,25,29-hexaazahexacyclo[24.3.1.1~17,21~.0~2,10~.0~3,7~.0~22,27~]hentriaconta-1(30),2,4,7,9,22,24,26,28-nonaen-15-one] | 12 | 11 | 167 | –
Cc1cc2[nH]ncc2c2c1CCCOC(=O)O[C@@H]1CCCCN(C1)c1nc(OC[C@@H]3C[C@@H](F)CN3C)nc3c(F)c-2ncc13 [Example 92, (26R)-32-fluoro-4-(((2S,4R)-4-fluoro-1-methyl-2-pyrrolidinyl)methoxy)-18-methyl-23,25-dioxa-1,3,5,9,14,15-hexaazahexacyclo[24.4.1.1~6,10~.0~2,7~.0~11,19~.0~12,16~]dotriaconta-2,4,6,8,10(32),11,13,16,18-nonaen-24-one] | 13 | 11 | 317 | –
Cc1cc2[nH]ncc2c2c1/C=C/COC(=O)O[C@@H]1CCCN(C1)c1nc(OC[C@@]34CCCN3C[C@H](F)C4)nc3c(F)c-2ncc13 [Example 101, (11E,17R)-30-fluoro-24-(((2R,7aS)-2-fluorotetrahydro-1H-pyrrolo[1,2-a]pyrrol-7a(5H)-yl)methoxy)-9-methyl-14,16-dioxa-5,6,21,23,25,29-hexaazahexacyclo[24.3.1.1~17,21~.0~2,10~.0~3,7~.0~22,27~]hentriaconta-1(30),2,4,7,9,11,22,24,26,28-decaen-15-one] | 93 | 70 | 1340 | –
Cc1cc2[nH]ncc2c2c1CCCCOC(=O)[C@@H]1CCCN(C1)c1nc(OC[C@@]34CCCN3C[C@H](F)C4)nc3c(F)c-2ncc13 [Example 108] | 24 | 14 | 386 | –
Cc1cc2[nH]ncc2c2c1CC(C)COC(=O)O[C@@H]1CCCN(C1)c1nc(OC[C@@]34CCCN3C[C@H](F)C4)nc3c(F)c-2ncc13 (stereo partly drawn) [Example 111] | 15 | 11 | 187 | –
CN1CCO[C@@H](COc2nc3c4cnc(c(F)c4n2)-c2c(c(Cl)cc4[nH]ncc24)CCCOC(=O)O[C@@H]2COCCN3C2)C1 [Example 124] | 20 | 15 | 479 | –
Fc1c2ncc3c(nc(OC[C@@]45CCCN4C[C@H](F)C5)nc13)N1CCC[C@@H](COCCOCc3c(Cl)cc4[nH]ncc4c3-2)C1 [Example 142] | 17 | 15 | 247 | –
Fc1c2ncc3c(nc(OC[C@@]45CCCN4C[C@H](F)C5)nc13)N1CCC[C@H](C1)Cn1cc(cn1)/C=C\c1c(Cl)cc3[nH]ncc3c1-2 [Example 147] | 16 | 13 | 298 | –
Fc1c2ncc3c(nc(OC[C@@]45CCCN4C[C@H](F)C5)nc13)N1CCO[C@@H](COCC(F)(F)CCc3c(Cl)cc4[nH]ncc4c3-2)C1 [Example 150, (17R)-9-Chloro-13,13,30-trifluoro-24-(((2R,7aS)-2-fluorotetrahydro-1H-pyrrolo[1,2-a]pyrrol-7a(5H)-yl)methoxy)-15,18-dioxa-5,6,21,23,25,29 hexaazahexacyclo[24.3.1.1˜17,21˜.0˜2,10˜.0˜3,7˜.0˜22,27˜]hentriaconta-1(30),2,4,7,9,22,24,26,28-nonaene] | 33 | 17 | 306 | –
Cc1cc2[nH]ncc2c2c1CCCn1ncc(n1)C1CCCN(C1)c1nc(OC[C@@]34CCCN3C[C@H](F)C4)nc3c(F)c-2ncc13 (stereo partly drawn) [Example 158, 31-Fluoro-25-(((2R,7aS)-2-fluorotetrahydro-1H-pyrrolo[1,2-a]pyrrol-7a(5H)-yl)methoxy)-9-methyl-5,6,14,15,22,24,26,30,33-nonaazaheptacyclo[25.3.1.1˜14,17˜.1˜18,22.0˜2,10˜.0˜3,7˜.0˜23,28˜]tritriaconta-1(31),2,4,7,9,15,17(33),23,25,27,29-undecaene] | 20 | 6 | – | 278
O=C1CCCCc2c(Cl)cccc2-c2ncc3c(nc(OC[C@@]45CCCN4C[C@H](F)C5)nc3c2F)N2CC[C@H]3CCN1[C@H]3C2 [Example 162, (25S,29R)-15-chloro-30-fluoro-4-(((2R,7aS)-2-fluorotetrahydro-1H-pyrrolo[1,2-a]pyrrol-7a(5H)-yl)methoxy)-1,3,5,9,22-pentaazahexacyclo[20.5.2.1~6,10~.0~2,7~.0~11,16~.0~25,29~]triaconta-2,4,6,8,10(30),11,13,15-octaen-21-one] | 37 | 20 | 1830 | –
